# From the supplement of paper PMC10307832
# Key:
# Assay in all cases: relative viability (nuclei count vs DMSO), 5 days (fraction); higher = more cells survive
# [1] = system: NCI-H2085
# Outline: (§1)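 Lung cancer cell lines were pin-tool dosed in 1536-well plates on the day after seeding, with either a lone drug or a fixed anchor-drug dose plus five library-drug doses (not always all listed) in √10 steps. Nuclei were counted on 4× images after 5 days. Relative viability is the ratio of treated-well to vehicle-well nuclei counts, with each value a median of duplicate plates.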
# [2] = system: NCI-H1355
# Outline: as §1
# [3] = system: LCLC-103H
# Outline: as §1
# [4] = system: NCI-H1437
# Outline: as §1
# [5] = system: LOU-NH91
# Outline: as §1
# [6] = system: NCI-H1395
# Outline: as §1
# [7] = system: NCI-H441
# Outline: as §1
# [8] = system: EKVX
# Outline: as §1
# [9] = system: BEN
# Outline: as §1
# [10] = system: NCI-H2342
# Outline: as §1
# [11] = system: NCI-H1734
# Outline: as §1
# [12] = system: NCI-H1651
# Outline: as §1
# [13] = system: HCC-366
# Outline: as §1
# [14] = system: NCI-H358
# Outline: as §1
# [15] = system: HCC-44
# Outline: as §1
# [16] = system: NCI-H838
# Outline: as §1
# [17] = system: HCC-15
# Outline: as §1
# [18] = system: NCI-H1975
# Outline: as §1
# [19] = system: NCI-H460
# Outline: as §1
# [20] = system: NCI-H1755
# Outline: as §1
# [21] = system: CAL-12T
# Outline: as §1
smiles,measurement,setting,value
CC(C)Oc1cc(Nc2nc(N[C@@H](C)c3ccc(F)cn3)ncc2Cl)n[nH]1 [AZ23] + NC(=O)Nc1cc(-c2cccc(F)c2)sc1C(=O)N[C@H]1CCCNC1 [AZD7762] (partner 0.2 µM),relative viability,[1]; first compound 0.01 µM,0.923
same,relative viability,[1]; first compound 0.03162 µM,0.975
same,relative viability,[1]; first compound 0.3162 µM,1.08
same,relative viability,[2]; first compound 0.01 µM,0.711
same,relative viability,[2]; first compound 0.03162 µM,0.808
same,relative viability,[2]; first compound 0.3162 µM,0.916
same,relative viability,[3]; first compound 0.01 µM,0.875
same,relative viability,[3]; first compound 0.03162 µM,0.87
same,relative viability,[3]; first compound 0.3162 µM,0.881
same,relative viability,[4]; first compound 0.01 µM,1.17
same,relative viability,[4]; first compound 0.03162 µM,1.18
same,relative viability,[4]; first compound 0.3162 µM,1.19
same,relative viability,[5]; first compound 0.01 µM,0.777
same,relative viability,[5]; first compound 0.03162 µM,0.853
same,relative viability,[5]; first compound 0.3162 µM,0.803
same,relative viability,[6]; first compound 0.03162 µM,0.375
same,relative viability,[6]; first compound 0.3162 µM,0.432
same,relative viability,[7]; first compound 0.01 µM,1.17
same,relative viability,[7]; first compound 0.03162 µM,1.03
same,relative viability,[7]; first compound 0.3162 µM,1.33
same,relative viability,[8]; first compound 0.01 µM,0.625
same,relative viability,[8]; first compound 0.03162 µM,0.837
same,relative viability,[8]; first compound 0.3162 µM,0.676
same,relative viability,[9]; first compound 0.01 µM,0.659
same,relative viability,[9]; first compound 0.03162 µM,0.759
same,relative viability,[9]; first compound 0.3162 µM,0.746
same,relative viability,[10]; first compound 0.01 µM,0.442
same,relative viability,[10]; first compound 0.03162 µM,0.569
same,relative viability,[10]; first compound 0.3162 µM,0.483
same,relative viability,[11]; first compound 0.01 µM,0.602
same,relative viability,[11]; first compound 0.03162 µM,0.688
same,relative viability,[11]; first compound 0.3162 µM,0.795
same,relative viability,[12]; first compound 0.01 µM,0.376
same,relative viability,[12]; first compound 0.03162 µM,0.541
same,relative viability,[12]; first compound 0.3162 µM,0.623
same,relative viability,[13]; first compound 0.01 µM,0.239
same,relative viability,[13]; first compound 0.03162 µM,0.423
same,relative viability,[13]; first compound 0.3162 µM,0.496
same,relative viability,[14]; first compound 0.01 µM,0.447
same,relative viability,[14]; first compound 0.03162 µM,0.653
same,relative viability,[14]; first compound 0.3162 µM,0.514
same,relative viability,[15]; first compound 0.01 µM,1.06
same,relative viability,[15]; first compound 0.03162 µM,1.01
same,relative viability,[15]; first compound 0.3162 µM,1.04
same,relative viability,[16]; first compound 0.01 µM,0.934
same,relative viability,[16]; first compound 0.03162 µM,1.05
same,relative viability,[16]; first compound 0.3162 µM,0.991
same,relative viability,[17]; first compound 0.01 µM,1.43
same,relative viability,[17]; first compound 0.03162 µM,1.34
same,relative viability,[17]; first compound 0.3162 µM,1.35
same,relative viability,[18]; first compound 0.01 µM,0.555
same,relative viability,[18]; first compound 0.03162 µM,0.799
same,relative viability,[18]; first compound 0.3162 µM,0.828
same,relative viability,[19]; first compound 0.01 µM,0.722
same,relative viability,[19]; first compound 0.03162 µM,0.751
same,relative viability,[19]; first compound 0.3162 µM,0.799
same,relative viability,[20]; first compound 0.01 µM,0.413
same,relative viability,[20]; first compound 0.03162 µM,0.471
same,relative viability,[20]; first compound 0.3162 µM,0.477
same,relative viability,[21]; first compound 0.01 µM,0.614
same,relative viability,[21]; first compound 0.03162 µM,0.689
same,relative viability,[21]; first compound 0.3162 µM,0.717
COc1cc(N2CCC(C(N)=O)CC2)ccc1Nc1nc(N)c(Cl)c(Nc2ccccc2S(=O)(=O)C(C)C)n1 [HG-5-88-01] + NC(=O)Nc1cc(-c2cccc(F)c2)sc1C(=O)N[C@H]1CCCNC1 [AZD7762] (partner 0.2 µM),relative viability,[1]; first compound 0.04 µM,1.08
same,relative viability,[1]; first compound 0.1265 µM,0.969
same,relative viability,[1]; first compound 0.4 µM,0.922
same,relative viability,[1]; first compound 1.265 µM,0.964
same,relative viability,[1]; first compound 4 µM,0.667
same,relative viability,[2]; first compound 0.04 µM,0.714
same,relative viability,[2]; first compound 0.1265 µM,0.731
same,relative viability,[2]; first compound 0.4 µM,0.762
same,relative viability,[2]; first compound 1.265 µM,0.69
same,relative viability,[2]; first compound 4 µM,0.474
same,relative viability,[3]; first compound 0.04 µM,0.803
same,relative viability,[3]; first compound 0.1265 µM,0.761
same,relative viability,[3]; first compound 0.4 µM,0.616
same,relative viability,[3]; first compound 1.265 µM,0.828
same,relative viability,[3]; first compound 4 µM,0.697
same,relative viability,[4]; first compound 0.04 µM,1.13
same,relative viability,[4]; first compound 0.1265 µM,1.13
same,relative viability,[4]; first compound 0.4 µM,1.07
same,relative viability,[4]; first compound 4 µM,1.2
same,relative viability,[5]; first compound 0.04 µM,0.809
same,relative viability,[5]; first compound 0.1265 µM,0.677
same,relative viability,[5]; first compound 0.4 µM,0.649
same,relative viability,[5]; first compound 1.265 µM,0.551
same,relative viability,[5]; first compound 4 µM,0.514
same,relative viability,[6]; first compound 0.04 µM,0.366
same,relative viability,[6]; first compound 0.1265 µM,0.403
same,relative viability,[6]; first compound 0.4 µM,0.418
same,relative viability,[6]; first compound 1.265 µM,0.384
same,relative viability,[6]; first compound 4 µM,0.362
same,relative viability,[7]; first compound 0.04 µM,0.964
same,relative viability,[7]; first compound 0.1265 µM,0.931
same,relative viability,[7]; first compound 0.4 µM,1.19
same,relative viability,[7]; first compound 1.265 µM,1.08
same,relative viability,[7]; first compound 4 µM,0.998
same,relative viability,[8]; first compound 0.04 µM,0.673
same,relative viability,[8]; first compound 0.1265 µM,0.622
same,relative viability,[8]; first compound 0.4 µM,0.695
same,relative viability,[8]; first compound 4 µM,0.527
same,relative viability,[9]; first compound 0.04 µM,0.47
same,relative viability,[9]; first compound 0.1265 µM,0.69
same,relative viability,[9]; first compound 0.4 µM,0.635
same,relative viability,[9]; first compound 1.265 µM,0.615
same,relative viability,[9]; first compound 4 µM,0.576
same,relative viability,[10]; first compound 0.04 µM,0.47
same,relative viability,[10]; first compound 0.1265 µM,0.489
same,relative viability,[10]; first compound 0.4 µM,0.447
same,relative viability,[10]; first compound 4 µM,0.408
same,relative viability,[11]; first compound 0.04 µM,0.515
same,relative viability,[11]; first compound 0.1265 µM,0.514
same,relative viability,[11]; first compound 0.4 µM,0.52
same,relative viability,[11]; first compound 1.265 µM,0.511
same,relative viability,[11]; first compound 4 µM,0.724
same,relative viability,[12]; first compound 0.04 µM,0.463
same,relative viability,[12]; first compound 0.1265 µM,0.447
same,relative viability,[12]; first compound 0.4 µM,0.439
same,relative viability,[12]; first compound 1.265 µM,0.342
same,relative viability,[12]; first compound 4 µM,0.321
same,relative viability,[13]; first compound 0.04 µM,0.286
same,relative viability,[13]; first compound 0.1265 µM,0.294
same,relative viability,[13]; first compound 0.4 µM,0.249
same,relative viability,[13]; first compound 1.265 µM,0.234
same,relative viability,[13]; first compound 4 µM,0.199
same,relative viability,[14]; first compound 0.04 µM,0.498
same,relative viability,[14]; first compound 0.1265 µM,0.503
same,relative viability,[14]; first compound 0.4 µM,0.451
same,relative viability,[14]; first compound 1.265 µM,0.223
same,relative viability,[14]; first compound 4 µM,0.245
same,relative viability,[15]; first compound 0.04 µM,0.959
same,relative viability,[15]; first compound 0.1265 µM,0.999
same,relative viability,[15]; first compound 0.4 µM,0.995
same,relative viability,[15]; first compound 1.265 µM,1.03
same,relative viability,[15]; first compound 4 µM,0.957
same,relative viability,[16]; first compound 0.04 µM,0.917
same,relative viability,[16]; first compound 0.1265 µM,0.958
same,relative viability,[16]; first compound 0.4 µM,0.881
same,relative viability,[16]; first compound 1.265 µM,0.749
same,relative viability,[16]; first compound 4 µM,0.847
same,relative viability,[17]; first compound 0.04 µM,1.27
same,relative viability,[17]; first compound 0.1265 µM,0.595
same,relative viability,[17]; first compound 0.4 µM,1.15
same,relative viability,[17]; first compound 1.265 µM,1.3
same,relative viability,[17]; first compound 4 µM,1.04
same,relative viability,[18]; first compound 0.04 µM,0.757
same,relative viability,[18]; first compound 0.1265 µM,0.756
same,relative viability,[18]; first compound 0.4 µM,0.603
same,relative viability,[18]; first compound 1.265 µM,0.328
same,relative viability,[18]; first compound 4 µM,0.348
same,relative viability,[19]; first compound 0.04 µM,0.7
same,relative viability,[19]; first compound 0.1265 µM,0.63
same,relative viability,[19]; first compound 0.4 µM,0.561
same,relative viability,[19]; first compound 1.265 µM,0.611
same,relative viability,[19]; first compound 4 µM,0.592
same,relative viability,[20]; first compound 0.04 µM,0.465
same,relative viability,[20]; first compound 0.1265 µM,0.476
same,relative viability,[20]; first compound 0.4 µM,0.419
same,relative viability,[20]; first compound 1.265 µM,0.449
same,relative viability,[20]; first compound 4 µM,0.516
same,relative viability,[21]; first compound 0.04 µM,0.71
same,relative viability,[21]; first compound 0.1265 µM,0.607
same,relative viability,[21]; first compound 0.4 µM,0.501
same,relative viability,[21]; first compound 1.265 µM,0.539
same,relative viability,[21]; first compound 4 µM,0.399
